Laboratory results reported in ChEMBL document CHEMBL5346878, “SAR study of piperidine derivatives as inhibitors of 1,4-dihydroxy-2-naphthoate isoprenyltransferase (MenA) from Mycobacterium tuberculosis” (Eur J Med Chem, 2023).
pIC50: −log10 of the molar value. ≈ marks a conversion by molar mass, not a printed value. Calls of active or inactive are those of the source. The calls are words filed in the database; no cut-off is given here.

What was measured:
[1] = system: Mycobacterium tuberculosis; experiment: Displacement of 14C-SAM from Mycobacterium tuberculosis membrane MenG assessed as reduction in MK8 synthesis at 12.5 uM incubated for 1 hr by liquid scintillation counting method; type: cell membranes
[2] = system: Mycobacterium tuberculosis; experiment: Antibacterial activity against Mycobacterium tuberculosis mc2 6230 assessed as bacterial growth inhibition incubated for 5 days by absorbance based assay; type: functional, organism-based; conditions: mc2 6230, 120 h; for GI50: time 5 day
[3] = biological target: T1, 1,4-dihydroxy-2-naphthoate octaprenyltransferase (Mycobacterium tuberculosis, UniProt P9WIP3); experiment: Displacement of [3H]FPP from Mycobacterium tuberculosis mc2 6230 membrane protein MenA incubated for 30 mins by liquid scintillation spectrometry; type: cell membranes; conditions: for pIC50: read-out: IC50
T1 sequence (P9WIP3 whole entry): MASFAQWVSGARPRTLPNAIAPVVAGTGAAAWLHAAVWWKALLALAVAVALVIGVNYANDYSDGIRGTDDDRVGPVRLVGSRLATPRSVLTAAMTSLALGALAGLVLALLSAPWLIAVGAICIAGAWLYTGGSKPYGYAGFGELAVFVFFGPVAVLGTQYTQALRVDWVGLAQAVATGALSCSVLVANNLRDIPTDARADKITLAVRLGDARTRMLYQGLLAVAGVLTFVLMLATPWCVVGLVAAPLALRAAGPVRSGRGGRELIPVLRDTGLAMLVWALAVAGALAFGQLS

[4] = system: Mycobacterium tuberculosis; experiment: Antibacterial activity against Mycobacterium tuberculosis assessed as bacterial growth inhibition; type: functional
[5] = system: Mycobacterium tuberculosis; experiment: Bactericidal activity against Mycobacterium tuberculosis H37RvLP (ATCC 25618) at 50 to 100 uM; type: functional, organism-based; conditions: dose 50-100 µM
[6] = system: Mycobacterium tuberculosis; experiment: Synergistic bactericidal activity against Mycobacterium tuberculosis H37RvLP (ATCC 25618) incubated for 14 days in presence of CPZ relative to control; type: functional; conditions: time 14 day
[7] = system: Mycobacterium tuberculosis; experiment: Synergistic bactericidal activity against Mycobacterium tuberculosis H37RvLP (ATCC 25618) assessed as fold increase in activity upto 100 uM in presence of CPZ; type: functional
[8] = system: Mycobacterium tuberculosis; experiment: Synergistic bactericidal activity against Mycobacterium tuberculosis H37RvLP (ATCC 25618) assessed as fold increase in activity at <12.5 uM in presence of IMP; type: functional
[9] = system: Mycobacterium tuberculosis; experiment: Antibacterial activity against Mycobacterium tuberculosis H37Rv (ATCC 27294) assessed as bacterial growth inhibition incubated for 7 days by microdilution alamarBlue assay; type: functional; conditions: 168 h, time 7 day
[10] = system: Mycobacterium tuberculosis; experiment: Synergistic bactericidal activity against Mycobacterium tuberculosis H37RvLP (ATCC 25618) at 25 uM in presence of IMP; type: functional, organism-based
[11] = system: Mycobacterium tuberculosis; experiment: Synergistic bactericidal activity against Mycobacterium tuberculosis H37RvLP (ATCC 25618) at 25 uM in presence of Q203; type: functional, organism-based

| SMILES | GI50 [2] [µM] | pIC50 [3] | further results |
| --- | --- | --- | --- |
| CCCN(C)c1ccc(CN2CCC(CSc3ccccc3C(=O)OC)CC2)cc1 |  |  | inhibition [1]: inactive |
| c1ccc(Oc2cccc(OCC3CCN(Cc4ccc(N5CCOCC5)cc4)CC3)c2)cc1 | 21 |  | inhibition [1]: inactive |
| CCCN(C)c1ccc(CN2CCCC(Oc3cccc(Oc4ccccc4)c3)C2)cc1 (stereo unspecified) | 37 | 4.62 |  |
| COc1ccc2ccc(OCCCCCCCCN3CCCCC3)cc2c1 |  |  | MIC [4]: 8.1 µM (≈ 2.99 µg/mL) |
| CCCN(C)c1ccc(CN2CCC(COc3c(F)cccc3F)CC2)cc1 | 28 | 4.60 |  |
| CCCN(C)c1ccc(CN2CCC(COc3cccc(Oc4ccccc4)c3)CC2)cc1 | 8 | 4.89 | inhibition [1]: inactive; Activity [5]: Active; inhibition (INH) [6]: 100%; fold change (FC) [7]: 1; fold change (FC) [8]: >3 |
| CCCN(C)c1ccc(CN2CCC(COc3cccc(Nc4ccccc4C)c3)CC2)cc1 | 16 | 4.66 | inhibition [1]: inactive |
| C=CCN(C)CCCCCCCCOc1ccc2ccc(OC)cc2c1 |  |  | MIC [4]: 8.4 µM (≈ 2.99 µg/mL) |
| CCCN(C)c1ccc(CN2CCC(COc3ccccc3)CC2)cc1 | 27 | 4.19 |  |
| CCCN(C)c1ccc(CN2CCC(COc3noc4ccccc34)CC2)cc1 |  |  | inhibition [1]: inactive |
| CCCN(C)c1ccc(CN2CCC(COc3ccc(OC)cc3)CC2)cc1 | 18 |  | inhibition [1]: inactive |
| CCCN(C)c1ccc(CN2CCC(COc3nc4ccc(F)cc4s3)CC2)cc1 |  | 4.51 | pIC50 [2]: 4.96 |
| CCCN(C)c1ccc(CN2CCC(COc3cccc(Br)c3)CC2)cc1 | 14 | 4.92 | inhibition [1]: inactive |
| COc1ccc2ccc(OCCCCCCCCNCCc3ccc(F)cc3)cc2c1 |  |  | MIC [4]: < 14.2 µM |
| CCCN(C)c1ccc(CN2CCC(COc3ccccc3F)CC2)cc1 | 35 | 4.74 |  |
| CCCN(C)c1ccc(CN2CCC(COc3ccccc3Cl)CC2)cc1 | 39 | 4.51 |  |
| CCCN(C)c1ccc(CN2CCC(COc3cccc(C(=O)c4ccc(Cl)cc4)c3)CC2)cc1 | 8 | 4.85 |  |

| SMILES | GI50 [2] [µM] | pIC50 [3] | further results |
| --- | --- | --- | --- |
| CCCN(C)c1ccc(CN2CCC3(CC2)CC(Oc2ccc(Cl)cc2)CO3)cc1 (stereo unspecified) | 25 | < 4.30 |  |
| CCCN(C)c1ccc(CN2[C@@H]3CC[C@H]2CC(Oc2cccc(Oc4ccccc4)c2)C3)cc1 (stereo partly specified) | 17 | 4.57 |  |
| COc1ccc(-c2cc(NC(=O)c3ccc(Cl)cc3F)ccc2OC)cc1 |  |  | inhibition [1]: Active; MIC90 [9]: 4.8 µg/mL (≈ 12.4 µM) |
| CCCN(C)c1ccc(CN2CCC(COc3cc(=O)n(C)c4ccccc34)CC2)cc1 | 11 | 3.99 |  |
| CCCN(C)c1ccc(CN2CCC3(CC2)CC(Oc2cccc(Oc4ccccc4)c2)CO3)cc1 (stereo unspecified) | 9 |  |  |
| CCCN(C)c1ccc(CN2CCC(COc3ccc(F)cc3)CC2)cc1 | 14 | 4.48 |  |
| CCCN(C)c1ccc(CN2CCC(COc3ccc4ccccc4c3)CC2)cc1 | 7 | 4.68 |  |
| CCCN(C)c1ccc(CN2CCC(COc3ccc(Br)cc3)CC2)cc1 | 11 | 4.92 |  |
| CCCN(C)c1ccc(CN2CCC(COc3cccc(C(=O)N4CCOCC4)c3)CC2)cc1 | > 215 |  | IC50 [3]: Not Active |
| CCCN(C)c1ccc(CN2CCC(CSc3ccccc3)CC2)cc1 |  | 4.74 |  |
| CCCN(C)c1ccc(CN2CCC(COc3cccc(Cc4ccc(Cl)cc4)c3)CC2)cc1 | > 226 | 4.26 |  |
| CCCN(C)c1ccc(CN2CCC(COC3[C@H]4C[C@@H]5C[C@@H](C[C@H]3C5)C4)CC2)cc1 (stereo partly specified) | 6 | 4.64 |  |
| CCCN(C)c1ccc(CN2CCC(COc3ccc(C)cn3)CC2)cc1 | 31 | < 4.30 |  |
| CCCN(C)c1ccc(CN2CCC(COc3ccc(Cl)cc3Cl)CC2)cc1 | 13 |  |  |
| CCCN(C)c1ccc(CN2CCC(COc3ccc(Cl)cc3)CC2)cc1 | 10 | 4.66 | inhibition [1]: inactive; Activity [5]: Active; inhibition (INH) [6]: 100%; fold change (FC) [7]: 1; Activity [10]: Active; Activity [11]: Active |
| CCCN(C)c1ccc(CN2C[C@@H]3C[C@H]2CN3Cc2ccc(N3CCOCC3)cc2)cc1 | 149 | < 4.30 |  |
